These results are taken from patent US12263155B2, “Combinations of monoamine oxidase inhibitors and serotonin receptor agonists and their therapeutic use” (Remedi, Inc., priority 2022, dated 2025).

The target of the assay is T1, MAO-B (Homo sapiens, UniProt P27338).
T1 sequence (P27338 1-520): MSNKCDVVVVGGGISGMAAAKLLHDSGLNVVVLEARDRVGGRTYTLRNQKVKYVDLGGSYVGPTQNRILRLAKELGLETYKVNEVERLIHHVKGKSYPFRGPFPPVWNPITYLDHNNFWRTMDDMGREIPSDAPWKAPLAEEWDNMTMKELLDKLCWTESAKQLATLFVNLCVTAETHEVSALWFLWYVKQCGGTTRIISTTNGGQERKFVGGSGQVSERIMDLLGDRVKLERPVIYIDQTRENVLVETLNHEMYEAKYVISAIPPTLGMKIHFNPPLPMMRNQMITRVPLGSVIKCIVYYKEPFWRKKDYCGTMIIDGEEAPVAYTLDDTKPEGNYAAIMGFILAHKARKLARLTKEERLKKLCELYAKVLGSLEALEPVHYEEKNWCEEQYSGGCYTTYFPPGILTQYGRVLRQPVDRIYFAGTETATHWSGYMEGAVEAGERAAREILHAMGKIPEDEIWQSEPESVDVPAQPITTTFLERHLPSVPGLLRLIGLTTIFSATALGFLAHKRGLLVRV

As to `O=S1(=O)c2ccc(F)cc2Oc2cc(OCC(F)(F)F)ccc21` [CX157, 3-fluoro-7(2,2,2-trifluorethoxy)phenoxathiine-10,10-dioxide], for the setting “human brain homogenates”, the “selectivity for MAO-A inhibition over MAO-B inhibition” value was greater than 1000 fold. The MAO-B inhibition result (tested concentration 10 μM) is recorded as “no detectable MAO-B inhibition”.
